Measurements reported in patent US20210015897A1, “METHODS TO PRODUCE PEPTIDES, POLYPEPTIDES OR CELLS FOR MODULATING IMMUNITY” (IMNATE SARL, priority 2017, published 2021).

Tests used:
CD4+ T cells = assay: Proliferation of AAV-specific CD4+ T cells on peptide-loaded dendritic cells (thymidine incorporation); type: cell-based, mice
Excerpt: The peptide of interest is then produced by chemical synthesis together with a potentiating motif made of a cysteine residue added to flanking regions on each side of the epitope (SEQ ID NO: 18).

[1] = system: class II-restricted effector CD4+ T cells; assay: Peptide added to dendritic cells in cultures with class II-restricted effector CD4+ T cells; type: cell-based, human
Protocol: Naïve human CD4+ T cells are obtained from peripheral blood of subjects carrying either the DQ2 or DQ8 haplotype using microbeads coated with an anti-CD4+ antibody. Such cells are incubated with autologous dendritic cells derived from peripheral blood monocytes and loaded with peptide of sequence (SEQ ID NO: 19) so as to obtain effector CD4+ T cells.
In parallel experiments, a peptide of same sequence but containing a potentiating motif within flanking residues is used. Thus, a peptide of sequence (SEQ ID NO: 20) is produced, which contains in its flanking residues a sequence derived from an antibody to CD4, specific for the second extracellular domain of CD4.

[2] = system: CD4+ T cells to the AAV capsid; assay: Functional assay of spleen CD4+ T cells after subcutaneous immunisation with peptide in alum; type: in vivo, mice; conditions: 4 subcutaneous administrations at fortnight intervals with alum; spleen 10 days after last immunization
AAV vector = assay: Immune response to IV AAV vector particles in peptide-immunized mice; type: in vivo; conditions: 10^9 AAV vector particles IV twice at an interval of 6 weeks
Excerpt: Mice immunized with peptide of SEQ ID NO: 18 are then used for direct IV administration of 10^9 AAV vector particles administered twice at an interval of 6 weeks.

Substance: SEQ ID NO: 17: AAV VP1 capsid peptide encompassing an epitope activating CD4+ T cells (FNGLDKGEPVNEA; AAV)
- specificity of CD4+ T cell activation by thymidine incorporation as a marker of proliferation (CD4+ T cells): confirmed to be specific

Substance: SEQ ID NO: 20: peptide of same sequence as SEQ ID NO: 19 with flanking sequence derived from an antibody to CD4 (QLQPFPQPQLPYPQRYD; SEQ I9 + CD4 motif)
- apoptosis of antigen-presenting dendritic cell and bystander effector CD4+ T cells [1]: induction of apoptosis
- conversion of effector CD4+ T cells [1]: conversion of effector CD4+ T cells into cells with strong regulatory activity

Substance: SEQ ID NO: 18: AAV VP1 epitope with a cysteine residue added to flanking regions on each side (HCFNGLDKGEPVNEACH; SEQ 17 + Cys and Cys)
- activity of CD4+ T cells obtained by the immunisation schedule [2]: exert a regulatory activity
- immune response towards the AAV vector (AAV vector): do not mount an immune response towards the AAV vector
